# Data: US20030099674A1 (priority 2001, published 2003)
# Like-named read-outs stand apart in the source and are kept apart here.
# Key:
# [1] = Stability of paclitaxel in solutions containing oil and soy lecithin (HPLC purity); assay type: physicochemical
# Procedure: The ethanol solution was mixed with the selected oil. […] The resulting oil solutions were sealed in glass vials and stored at 40° C. or at 60° C.
# [2] = Paclitaxel emulsion stability study #2: effect of pH, dry vs liquid emulsions at 40° C.; assay type: physicochemical; conditions: pH 4.0 to 8.9, stored at 40° C., HPLC
# Procedure: These tests were conducted to select optimal pH's for a dry paclitaxel emulsion.
# The fine emulsion was divided into 5 portions. The pH of each portion was adjusted to pH 4.0, 5.6, 6.6, 7.8 or 8.9 using 0.2 N HCl or 0.2 N NaOH solution. Average droplet size of each pH adjusted emulsion was determined using LLS.
# The stability evaluation included both dry and liquid emulsions (pre-lyophilization) at each pH. These emulsions were stored sealed in glass vials at 40° C.
# [3] = no lecithin, 24 hours at 25° C.
# Procedure: The mixtures were agitated for 24 hours at 25° C., and were then filtered through a 0.2 micron filter.
# [4] = in the dry emulsions of MCT or sesame oil at a storage temperature of 25° C. or below
# Procedure: At each time point including the time 0, a vial was removed from each stability temperature chamber and reconstituted with 0.2 ml deionized water to reform the emulsion.
# Along with the dry emulsion samples, the liquid emulsion samples (pre-lyophilization) were also included in this study. The liquid emulsions were stored at −20° C.
structure (smiles),measurement,setting,value
CC(=O)O[C@H]1C(=O)[C@@]2(C)[C@H]([C@H](OC(=O)c3ccccc3)[C@]3(O)C[C@H](OC(=O)[C@H](O)[C@@H](NC(=O)c4ccccc4)c4ccccc4)C(C)=C1C3(C)C)[C@]1(OC(C)=O)CO[C@@H]1C[C@@H]2O [paclitaxel],Purity (% paclitaxel peak area over total peak area) Day 0,[1]; Corn oil with soy lecithin,98.7 % paclitaxel peak area over total peak area
same,Purity (% paclitaxel peak area over total peak area) Day 0,[1]; Cottonseed oil with soy lecithin,98.8 % paclitaxel peak area over total peak area
same,Purity (% paclitaxel peak area over total peak area) Day 0,[1]; Ethyl oleate with soy lecithin,97.0 % paclitaxel peak area over total peak area
same,Purity (% paclitaxel peak area over total peak area) Day 0,[1]; Miglyol 812N with soy lecithin,99.3 % paclitaxel peak area over total peak area
same,Purity (% paclitaxel peak area over total peak area) Day 0,[1]; Safflower oil with soy lecithin,98.0 % paclitaxel peak area over total peak area
same,Purity (% paclitaxel peak area over total peak area) Day 0,"[1]; Sesame oil + oleic acid, with soy lecithin",98.5 % paclitaxel peak area over total peak area
same,Purity (% paclitaxel peak area over total peak area) Day 0,"[1]; Sesame oil + vit E, with soy lecithin",99.0 % paclitaxel peak area over total peak area
same,Purity (% paclitaxel peak area over total peak area) Day 0,"[1]; Sesame oil + water, with soy lecithin",99.1 % paclitaxel peak area over total peak area
same,Purity (% paclitaxel peak area over total peak area) Day 0,[1]; Sesame oil with soy lecithin,99.0 % paclitaxel peak area over total peak area
same,Purity (% paclitaxel peak area over total peak area) Day 0,[1]; Sesame oil without soy lecithin,99.2 % paclitaxel peak area over total peak area
same,Purity (% paclitaxel peak area over total peak area) Day 0,[1]; Soybean oil with soy lecithin,99.4 % paclitaxel peak area over total peak area
same,Purity (% paclitaxel peak area over total peak area) Day 0,[1]; Vitamin E with soy lecithin,96.3 % paclitaxel peak area over total peak area
same,Stability of paclitaxel in dry versus liquid emulsions,[2],more stable than in the liquid emulsions
same,Solubility at 25° C.,[3]; MCT oil (Miglyol 812N),40 mg/g of oil
same,Solubility at 25° C.,[3]; Sesame oil,5 mg/g of oil
same,Time paclitaxel is chemically stable,[4],at least 28 days
